The values that follow come from US12559496B2, “Imidazopyrimidines as modulators of IL-17” (Janssen Pharmaceutica NV, priority 2020, dated 2026).

The structures appear in SMILES notation.

Test [1] has as its system IL-17A-induced G-CSF production in human normal keratinocytes (NHK). The experiment in a line: NHK Assay: IL-17A-induced G-CSF production in human normal keratinocytes. It counts as cell-based. As to conditions: Homo sapiens, Keratinocyte, 24 h, IL-17A 5 ng/mL, 5% FBS, simple average if tested more than once. In outline:
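Adult normal human keratinocytes treated 24 h at 37 °C with IL-17A (5 ng/mL final) pre-incubated 1 h at rt with titrated compound; 0.2% DMSO, 5% FBS. G-CSF in supernatant measured by HTRF against a standard curve to give IC50; viability checked by CellTiter-Glo.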

Test [2] concerns the target IL-17A(FLAG-Tagged): IL-17RA(His-Tagged) (Homo sapiens, UniProt Q16552, K93Q). The experiment in a line: IL-17A(FLAG-Tagged): IL-17RA(His-Tagged) Binding Disruption Eu-HTRF Assay. As to conditions: disruption of IL-17A/IL-17RA binding; simple average if tested more than once. In a few lines: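 Compound (22-point 2-fold series) was preincubated 1 h at rt with FLAG-IL-17A, then His-IL-17RA, Eu-anti-FLAG and D2-anti-His were added in PBS/0.01% Triton X-100 with 200 mM KF for 2 h at rt. The ratio of 665 and 620 nm intensities versus concentration was fitted to one-site competition for IC50.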

Sequence of UniProt Q16552 (Q16552 with tags, fused parts or gaps K93Q): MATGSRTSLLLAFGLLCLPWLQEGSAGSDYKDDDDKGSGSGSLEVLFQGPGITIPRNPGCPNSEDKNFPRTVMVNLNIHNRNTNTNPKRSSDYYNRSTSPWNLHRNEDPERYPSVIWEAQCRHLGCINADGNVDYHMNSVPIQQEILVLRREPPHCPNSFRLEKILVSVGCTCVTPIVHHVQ

`O=C(CCC(F)(F)F)NC(c1ccn2cc([C@@H](NC(=O)c3cnn(CCC(F)(F)F)c3)C3CCC(F)(F)CC3)nc2n1)C1CC1` (stereo in doubt) [Example 50, N—((S)-(7-((R*)-Cyclopropyl(4,4,4-trifluorobutanamido)methyl)imidazo[1,2-a]pyrimidin-2-yl)(4,4-difluorocyclohexyl)methyl)-1-(3,3,3-trifluoropropyl)-1H-pyrazole-4-carboxamide]: the IC50 in test [1] was more than 20000 nM; in test [2], 6800 nM.
On to `CC(C)n1ncnc1C(=O)N[C@H](c1cn2ccc([C@H](NC(=O)CC3CC(F)(F)C3)C3CC3)nc2n1)C1CCC(F)(F)CC1` [Example 13, N—((S)-(7-((R)-Cyclopropyl(2-(3,3-difluorocyclobutyl)acetamido)methyl)imidazo[1,2-a]pyrimidin-2-yl)(4,4-difluorocyclohexyl)methyl)-1-isopropyl-1H-1,2,4-triazole-5-carboxamide], for which the IC50 stood at 500 nM in test [1] and 340 nM in test [2].
As for `CC(C)n1ncnc1C(=O)N[C@H](c1cn2ccc([C@@H](NC(=O)CC3CC(F)(F)C3)C3CC3)nc2n1)C1CCC(F)(F)CC1` [Example 14, N—((S)-(7-((S)-Cyclopropyl(2-(3,3-difluorocyclobutyl)acetamido)methyl)imidazo[1,2-a]pyrimidin-2-yl)(4,4-difluorocyclohexyl)methyl)-1-isopropyl-1H-1,2,4-triazole-5-carboxamide], the results for the IC50 in test [1] and in test [2] were more than 20000 nM and 17000 nM, respectively.
For `O=C(CC1CC(F)(F)C1)N[C@@H](c1ccn2cc([C@@H](NC(=O)c3ncnn3CC3CC3)C3CCC(F)(F)CC3)nc2n1)C1CC1` [Example 15, N—((S)-(7-((R)-Cyclopropyl(2-(3,3-difluorocyclobutyl)acetamido)methyl)imidazo[1,2-a]pyrimidin-2-yl)(4,4-difluorocyclohexyl)methyl)-1-(cyclopropylmethyl)-1H-1,2,4-triazole-5-carboxamide], in that order: 1400 nM and 290 nM.
Taken in the same sequence, the figures for `O=C(CC1CC(F)(F)C1)N[C@H](c1ccn2cc([C@@H](NC(=O)c3ncnn3CC3CC3)C3CCC(F)(F)CC3)nc2n1)C1CC1` [Example 16, N—((S)-(7-((S)-Cyclopropyl(2-(3,3-difluorocyclobutyl)acetamido)methyl)imidazo[1,2-a]pyrimidin-2-yl)(4,4-difluorocyclohexyl)methyl)-1-(cyclopropylmethyl)-1H-1,2,4-triazole-5-carboxamide] were more than 20000 nM and 12000 nM.
For `Cc1nonc1C(=O)N[C@H](c1cn2ccc([C@H](NC(=O)CC3CC(F)(F)C3)C3CC3)nc2n1)C1CCC(F)(F)CC1` [Example 21, N—((S)-(7-((R)-Cyclopropyl(2-(3,3-difluorocyclobutyl)acetamido)methyl)imidazo[1,2-a]pyrimidin-2-yl)(4,4-difluorocyclohexyl)methyl)-4-methyl-1,2,5-oxadiazole-3-carboxamide], in that order: 590 nM and 99 nM.
As for `Cc1nonc1C(=O)N[C@H](c1cn2ccc([C@@H](NC(=O)CC3CC(F)(F)C3)C3CC3)nc2n1)C1CCC(F)(F)CC1` [Example 22, N—((S)-(7-((S)-Cyclopropyl(2-(3,3-difluorocyclobutyl)acetamido)methyl)imidazo[1,2-a]pyrimidin-2-yl)(4,4-difluorocyclohexyl)methyl)-4-methyl-1,2,5-oxadiazole-3-carboxamide], the IC50 in test [1] is more than 20000 nM; in test [2], 6200 nM.
For the compound `Cc1nonc1C(=O)N[C@H](c1cn2ccc([C@H](NC(=O)CCC(F)(F)F)C3CC3)nc2n1)C1CCC(F)(F)CC1` [Example 23, N—((S)-(7-((R)-Cyclopropyl(4,4,4-trifluorobutanamido)methyl)imidazo[1,2-a]pyrimidin-2-yl)(4,4-difluorocyclohexyl)methyl)-4-methyl-1,2,5-oxadiazole-3-carboxamide], the IC50 in test [1] came out at 520 nM; in test [2], 130 nM.
For `O=C(CC1CC(F)(F)C1)N[C@@H](c1ccn2cc([C@@H](NC(=O)c3conc3C3CC3)C3CCC(F)(F)CC3)nc2n1)C1CC1` [Example 24, 3-Cyclopropyl-N—((S)-(7-((R)-cyclopropyl(2-(3,3-difluorocyclobutyl)acetamido)methyl)imidazo[1,2-a]pyrimidin-2-yl)(4,4-difluorocyclohexyl)methyl)isoxazole-4-carboxamide], in that order: 180 nM and 180 nM.
Taken in the same sequence, the figures for `O=C(CC1CC(F)(F)C1)N[C@@H](c1ccn2cc([C@@H](NC(=O)c3ccnc(CC(F)(F)F)c3)C3CCC(F)(F)CC3)nc2n1)C1CC1` [Example 25, N—((S)-(7-((R)-Cyclopropyl(2-(3,3-difluorocyclobutyl)acetamido)methyl)imidazo[1,2-a]pyrimidin-2-yl)(4,4-difluorocyclohexyl)methyl)-2-(2,2,2-trifluoroethyl)isonicotinamide] were 210 nM and 310 nM.
As to `O=C(CC1CC(F)(F)C1)N[C@@H](c1ccn2cc([C@@H](NC(=O)c3conc3CCC(F)(F)F)C3CCC(F)(F)CC3)nc2n1)C1CC1` [Example 26, N—((S)-(7-((R)-Cyclopropyl(2-(3,3-difluorocyclobutyl)acetamido)methyl)imidazo[1,2-a]pyrimidin-2-yl)(4,4-difluorocyclohexyl)methyl)-3-(3,3,3-trifluoropropyl)isoxazole-4-carboxamide], the IC50 is 110 nM in test [1] and 130 nM in test [2].
Taken in the same sequence, the figures for `O=C(CC1CC(F)(F)C1)N[C@H](c1ccn2cc([C@@H](NC(=O)c3conc3C3CC3)C3CCC(F)(F)CC3)nc2n1)C1CC1` [Example 27, 3-Cyclopropyl-N—((S)-(7-((S)-cyclopropyl(2-(3,3-difluorocyclobutyl)acetamido)methyl)imidazo[1,2-a]pyrimidin-2-yl)(4,4-difluorocyclohexyl)methyl)isoxazole-4-carboxamide] were 2600 nM and 3800 nM.
As for `O=C(CC1CC(F)(F)C1)N[C@H](c1ccn2cc([C@@H](NC(=O)c3ccnc(CC(F)(F)F)c3)C3CCC(F)(F)CC3)nc2n1)C1CC1` [Example 28, N—((S)-(7-((S)-Cyclopropyl(2-(3,3-difluorocyclobutyl)acetamido)methyl)imidazo[1,2-a]pyrimidin-2-yl)(4,4-difluorocyclohexyl)methyl)-2-(2,2,2-trifluoroethyl)isonicotinamide], the half-inhibitory concentration (IC50) in test [1] worked out at 1200 nM; in test [2], 5400 nM.
Taken in the same sequence, the figures for `O=C(CC1CC(F)(F)C1)N[C@H](c1ccn2cc([C@@H](NC(=O)c3conc3CCC(F)(F)F)C3CCC(F)(F)CC3)nc2n1)C1CC1` [Example 29, N—((S)-(7-((S)-Cyclopropyl(2-(3,3-difluorocyclobutyl)acetamido)methyl)imidazo[1,2-a]pyrimidin-2-yl)(4,4-difluorocyclohexyl)methyl)-3-(3,3,3-trifluoropropyl)isoxazole-4-carboxamide] were 2600 nM and 2300 nM.
For `O=C(CCC(F)(F)F)N[C@@H](c1ccn2cc([C@@H](NC(=O)c3conc3CCC(F)(F)F)C3CCC(F)(F)CC3)nc2n1)C1CC1` [Example 30, N—((S)-(7-((R)-Cyclopropyl(4,4,4-trifluorobutanamido)methyl)imidazo[1,2-a]pyrimidin-2-yl)(4,4-difluorocyclohexyl)methyl)-3-(3,3,3-trifluoropropyl)isoxazole-4-carboxamide], in that order: 74 nM and 110 nM.
Taken in the same sequence, the figures for `O=C(CCC(F)(F)F)N[C@H](c1ccn2cc([C@@H](NC(=O)c3cnn(CC4CC4)n3)C3CCC(F)(F)CC3)nc2n1)C1CC1` [Example 31, N—((S)-(7-((S)-Cyclopropyl(4,4,4-trifluorobutanamido)methyl)imidazo[1,2-a]pyrimidin-2-yl)(4,4-difluorocyclohexyl)methyl)-2-(cyclopropylmethyl)-2H-1,2,3-triazole-4-carboxamide] were more than 20000 nM and 3000 nM.
In the case of `O=C(CCC(F)(F)F)N[C@@H](c1ccn2cc([C@@H](NC(=O)c3ncnn3CC3CC3)C3CCC(F)(F)CC3)nc2n1)C1CC1` [Example 32, N—((S)-(7-((R)-Cyclopropyl(4,4,4-trifluorobutanamido)methyl)imidazo[1,2-a]pyrimidin-2-yl)(4,4-difluorocyclohexyl)methyl)-1-(cyclopropylmethyl)-1H-1,2,4-triazole-5-carboxamide], the IC50 in test [1] was 520 nM; in test [2] it was 170 nM.
Taken in the same sequence, the figures for `O=C(CCC(F)(F)F)N[C@H](c1ccn2cc([C@@H](NC(=O)c3ncnn3CC3CC3)C3CCC(F)(F)CC3)nc2n1)C1CC1` [Example 33, N—((S)-(7-((S)-Cyclopropyl(4,4,4-trifluorobutanamido)methyl)imidazo[1,2-a]pyrimidin-2-yl)(4,4-difluorocyclohexyl)methyl)-1-(cyclopropylmethyl)-1H-1,2,4-triazole-5-carboxamide] were more than 20000 nM and 8700 nM.
Taken in the same sequence, the figures for `O=C(CCC(F)(F)F)N[C@@H](c1ccn2cc([C@@H](NC(=O)c3cnn(CC4CC4)n3)C3CCC(F)(F)CC3)nc2n1)C1CC1` [Example 34, N—((S)-(7-((R)-Cyclopropyl(4,4,4-trifluorobutanamido)methyl)imidazo[1,2-a]pyrimidin-2-yl)(4,4-difluorocyclohexyl)methyl)-2-(cyclopropylmethyl)-2H-1,2,3-triazole-4-carboxamide] were 580 nM and 240 nM.
